pKd: −log10 of the molar value.
Key:
5xFAD mice = details: cited from earlier work
TrkB Ig2 = TrkB Ig2 (Homo sapiens, UniProt Q16620); experiment: Biacore binding assay, TrkB Ig2
BR6 cells = experiment: Protection from STS-induced cell death, MTT assay, BR6 cells; assay type: cell-based, human
TrkB Ig1 = TrkB Ig1 (Homo sapiens, UniProt Q16620); experiment: Biacore binding assay, TrkB Ig1
TrkB [1] = experiment: TrkB activation in BR6 cells; assay type: cell-based, human; details: data not shown
TrkB [2] = experiment: TrkB activation in SH-SY5Y cells; assay type: cell-based; details: data not shown
GST-TrkB ECD = GST-TrkB ECD (Homo sapiens, UniProt Q16620); experiment: Biacore binding assay, GST-TrkB ECD
AD animal models = details: cited from earlier work
SH-SY5Y cells = experiment: Protection from STS-induced cell death, MTT assay, TrkB-deficient SH-SY5Y cells; assay type: cell-based

GST-TrkB ECD, sequence (Q16620 32-428): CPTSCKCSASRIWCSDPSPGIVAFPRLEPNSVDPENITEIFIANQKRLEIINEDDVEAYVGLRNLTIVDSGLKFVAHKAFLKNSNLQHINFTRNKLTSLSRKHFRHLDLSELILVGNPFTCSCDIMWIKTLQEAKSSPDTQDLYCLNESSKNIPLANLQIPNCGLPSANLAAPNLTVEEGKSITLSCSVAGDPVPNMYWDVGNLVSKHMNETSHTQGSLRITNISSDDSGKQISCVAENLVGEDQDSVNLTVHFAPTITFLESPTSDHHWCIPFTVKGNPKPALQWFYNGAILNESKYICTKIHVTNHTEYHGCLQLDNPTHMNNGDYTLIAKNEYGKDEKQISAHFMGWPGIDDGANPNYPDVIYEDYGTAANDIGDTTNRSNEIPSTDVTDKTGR
TrkB Ig1, sequence (Q16620 182-250): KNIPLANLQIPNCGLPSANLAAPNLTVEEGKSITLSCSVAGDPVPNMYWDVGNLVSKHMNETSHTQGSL
TrkB Ig2, sequence (Q16620 251-340): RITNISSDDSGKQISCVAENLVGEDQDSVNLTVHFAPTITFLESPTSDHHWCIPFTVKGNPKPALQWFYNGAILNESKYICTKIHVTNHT

pKd (GST-TrkB ECD)	SMILES	Aβ deposition (5xFAD mice; chronic oral administration)	memory deficits (5xFAD mice; dose-dependent)	association with Ig2 domain (TrkB Ig2)	protective profile via MTT assay (BR6 cells)	association with Ig1 domain (TrkB Ig1)	TrkB activation (TrkB [1])	TrkB activation (TrkB [2])	levels of Aβ40 and Aβ42 (AD animal models)	learning and memory deficits (AD animal models; different AD animal models)	protective effect via MTT assay (SH-SY5Y cells)
	CNC(=O)Oc1ccc2c(=O)cc(-c3ccccc3)oc2c1OC(=O)NC [R13]	inhibits Aβ deposition	improves memory deficits								
6.73	O=c1cc(-c2ccccc2)oc2c(O)c(O)ccc12 [7,8-DHF, 7,8-dihydroxyflavone]			none of them associated with the Ig1 or Ig2 domains	comparable protective profiles	none of them associated with the Ig1 or Ig2 domains	robustly provoked TrkB activation	barely visible	reduces the levels of Aβ40 and Aβ42	rescues learning and memory deficits	neither of them displayed a demonstrable effect
